Laboratory results from patent publication US10125125B2, “N-(heteroaryl)-sulfonamide derivatives useful as S100-inhibitors” (Active Biotech AB, priority 2013, dated 2018).
Where two headings read alike, the source gives them in different places.

Legend:
[1] = Prodrug assay: plasma concentrations of prodrugs and demethylated parents after cassette dosing, LC-MS; assay type: in vivo, C57 Bl/6 mice; details: C57 Bl/6, mouse, solution, read-out: Parent (demethylated compound) Conc. in plasma after prodrug dosing
Protocol: ABR-239313, 239470 and 239749 were administered to seven C57 Bl/6 mice as a cassette formulation either intravenously (4 animals, nominal 1 mg/kg) or per oral (3 animals, nominal 5 mg/kg).
Blood samples were collected at time points ranging from 5 minutes to 7 hours after administration. After sample withdrawal, plasma was directly separated and frozen until analysis.
The plasma as well as the formulation samples were analyzed with respect to the concentration of ABR-239313, 239470, 239749 and the corresponding demethylated compounds, i.e. Examples 9, 75 and 73 (ABR-239247, 239417 and 239167) by means of LC-MS.
The samples were precipitated with acidified acetonitrile and centrifuged prior to injection on LC-MS system (consisting of a triple quadrupole instrument operated in negative MRM ionization mode, and a fast-gradient reversed-phase LC on a Symmetry Shield RP18, 2×30 mm, 3.5 um column).
In Table 3 the concentrations of each analyte are presented.

[2] = target: biotinylated human S100A9 : rhRAGE-Fc interaction (Homo sapiens (Human), UniProt P06702); test: AlphaScreen inhibition assay, Biot-hS100A9:hRAGE-Fc (S100A9-RAGE inhibition assay); assay type: binding
biotinylated human S100A9 : rhRAGE-Fc interaction, sequence (P06702 whole entry): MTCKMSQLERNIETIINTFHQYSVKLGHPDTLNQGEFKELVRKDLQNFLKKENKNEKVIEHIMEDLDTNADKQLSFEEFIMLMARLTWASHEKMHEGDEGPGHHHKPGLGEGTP
From the text: FIG. 1 is a schematic representation of an assay of the inhibition of the interaction between biotinylated human S100A9 and human RAGE-Fc using a small molecule S100A9 binder.
Inhibition Assay, Biot-hS100A9:hRAGE-Fc
The AlphaScreen (Amplified Luminescent Proximity Homogeneous Assay) contains two types of beads, Alpha Donor beads and Acceptor beads (PerkinElmer). Upon laser excitation at 680 nm a photosensitizer in the Donor bead converts ambient oxygen to a more excited singlet state. The singlet oxygen molecule diffuses (maximum 200 nm) to react with a thioxene derivative in the Acceptor bead and generates a chemiluminescence reaction. Fluorophores in the Acceptor bead subsequently emit light at 520-620 nm which can be detected in the EnVision® Multilabel plate Reader (PerkinElmer). The beads are light sensitive and all work with the beads is performed under subdued light conditions or using green filters on light sources (Roscolux Chroma Green #389, Rosco).
In the AlphaScreen Inhibition Assay described here, protein A (Staphylococcus aureus) conjugated Acceptor beads are used together with streptavidin coated Donor beads (Perkin Elmer 6760617M). The Acceptor beads are pre-incubated with Fc-tagged recombinant human RAGE (rhRAGE-Fc) allowing binding of the rhRAGE-Fc to protein A on the beads. Biotinylated human S100A9 (biot-hS100A9) is pre-incubated with the low molecular test compounds. The pre-mixes are then added to the wells of a micro-plate and incubated allowing interaction between biot-hS100A9 and rhRAGE-Fc. Subsequent addition of streptavidin coated Donor beads causes binding of the streptavidin to the biotinylated hS100A9. After an additional incubation the signal is measured.
Without inhibitory compounds, the interaction of biot-hS100A9 to rhRAGE-Fc will bring the Acceptor and Donor beads in close proximity thus generating a high signal. With an inhibitor present the complex will not form resulting in a decreased signal.
Chemicals and reagents. • AlphaScreen® General IgG (Protein A) Detection Kit, (PerkinElmer 6760617M) • HBS-P buffer (GE Healthcare, BR-1003-68) • HBS-N buffer (GE Healthcare, BR-1003-69) • CaCl2 in HBS-P • ZnCl2 in Milli-Q water • DMSO • Biotinylated hS100A9, (biotinylated via cystein by EZ-link Iodoacetyl-PEG2-Biotin reagent (Pierce no. 21334), in HBS-N • rhRAGE-Fc (R&D Systems, 1145-RG-50), in HBS-P
The AlphaScreen assay method is used for screening of the inhibitory effect of different compound samples at fixed concentrations or for IC50 determination by varying the compound concentrations. Samples of test compounds and references are prepared from solutions in DMSO. Relevant reference inhibitors and DMSO are used as controls for defined inhibition and non-inhibition, respectively in the assay. The percent inhibition in assay for test compounds and references are calculated by comparing their obtained assay signals with the signal values for the control with only DMSO (no compound).
Assay concentration of biotinylated hS100A9 and rhRAGE-Fc are batch dependent, and are determined and defined by separate cross-titration experiments using this AlphaScreen inhibition method to verify the optimal setup regarding signal strength and achievement of a defined inhibition with relevant reference compounds. The Final assay concentrations of Acceptor and Donor beads are 20 μg/mL.
Experimental Set Up for Screening, Preparation of Solutions and Beads.
Assay buffer is prepared by adding CaCl2 and ZnCl2 to HBS-P and is used freshly prepared in the experiment.
Biotin-hS100A9 solution for the experiment is prepared by dilution of appropriate amount of stock solution biot-hS100A9 in assay buffer (with CaCl2 and ZnCl2) and incubation in room temperature for 30 minutes.
rhRAGE-Fc solution for the experiment is prepared by dilution appropriate amount of rhRAGE-Fc stock in assay buffer.
Protein A Acceptor beads are diluted in assay buffer and are added to an equal volume of the prepared diluted rhRAGE-Fc solution.

[3] = intravenous, i.v. cassette of prodrugs, nominal 1 mg/kg
[4] = oral, p.o. cassette of prodrugs, nominal 5 mg/kg

| SMILES | IC50 [2] [nM] | further results |
| --- | --- | --- |
| O=S(=O)(Nc1cnc(Cl)cc1O)c1cc(Cl)sc1Cl [Example 73, 2,5-dichloro-N-(6-chloro-4-hydroxypyridin-3-yl)thiophene-3-sulfonamide] | 1200 | concentration at 0.083 h ([1]; intravenous, i.v. cassette of prodrugs, nominal 1 mg/kg, 0.083 h): 89 nM; concentration at 0.5 h [1, 3]: 200 nM; concentration at 1 h [1, 3]: 190 nM; concentration at 2 h [1, 3]: 210 nM; concentration at 4 h [1, 3]: 180 nM; concentration at 7 h [1, 3]: 130 nM; concentration at 0.5 h [1, 4]: 460 nM; concentration at 1 h [1, 4]: 490 nM; concentration at 2 h [1, 4]: 690 nM; concentration at 4 h [1, 4]: 610 nM; concentration at 7 h [1, 4]: 780 nM |
| O=S(=O)(Cc1ccc(Cl)c(Cl)c1)Nc1cc(Cl)cnc1O [Example 172, N-(5-chloro-2-hydroxypyridin-3-yl)-1-(3,4-dichlorophenyl)methanesulfonamide] | 3100 | – |
| COc1ccc(S(=O)(=O)Nc2cncc(Cl)c2O)cc1Cl [Example 122, 3-chloro-N-(5-chloro-4-hydroxypyridin-3-yl)-4-methoxybenzene-1-sulfonamide] | > 1000 | – |
| O=S(=O)(Cc1cc(Cl)cc(Cl)c1)Nc1ccncc1O [Example 167, 1-(3,5-dichlorophenyl)-N-(3-hydroxypyridin-4-yl)methanesulfonamide] | < 1000 | – |
| N#Cc1cc(CS(=O)(=O)Nc2ncc(Cl)cc2O)cs1 [Example 127, N-(5-chloro-3-hydroxypyridin-2-yl)-1-(5-cyanothiophen-3-yl)methanesulfonamide] | 1110 | – |
| CCSc1cc(Cl)cc(CS(=O)(=O)Nc2ccc(Cl)nc2O)c1 [Example 186, N-(6-chloro-2-hydroxypyridin-3-yl)-1-[3-chloro-5-(ethylsulfanyl)phenyl]methane-sulfonamide] | < 1000 | – |
| O=S(=O)(Cc1cc(Cl)sc1Cl)Nc1ncc(Cl)cc1O [Example 20, N-(5-chloro-3-hydroxypyridin-2-yl)-1-(2,5-dichlorothiophen-3-yl)methane-sulfonamide] | < 1000 | – |
| O=S(=O)(Nc1cncc(Cl)c1O)c1cc(Cl)cc(Cl)c1 [Example 89, 3,5-dichloro-N-(5-chloro-4-hydroxypyridin-3-yl)benzene-1-sulfonamide] | 2100 | – |
| N#Cc1cnc(NS(=O)(=O)Cc2cc(Cl)cc(Cl)c2)c(O)n1 [Example 103, N-(5-cyano-3-hydroxypyrazin-2-yl)-1-(3,5-dichlorophenyl)methanesulfonamide] | < 1000 | – |
| O=S(=O)(Cc1cc(Cl)cc(Cl)c1)Nc1nnc(S(=O)(=O)CCCO)cc1O [Example 139, 1-(3,5-dichlorophenyl)-N-[4-hydroxy-6-(3-hydroxypropanesulfonyl)pyridazin-3-yl]methanesulfonamide] | < 1000 | – |
| O=S(=O)(Nc1ncc(Br)nc1O)C(c1cc(Cl)cc(Cl)c1)C(F)(F)F (racemic) [Example 141, (+/−)-N-(5-bromo-3-hydroxypyrazin-2-yl)-1-(3,5-dichlorophenyl)-2,2,2-trifluoroethane-1-sulfonamide] | < 1000 | – |
| O=S(=O)(Cc1cc(Cl)cc(Cl)c1)Nc1cnc(Cl)nc1O [Example 107, N-(2-chloro-4-hydroxypyrimidin-5-yl)-1-(3,5-dichlorophenyl)methanesulfonamide] | 4000 | – |
| O=S(=O)(Cc1cc(Cl)cc(Cl)c1)Nc1cc(Cl)c(Cl)nc1O [Example 173, N-(5,6-dichloro-2-hydroxypyridin-3-yl)-1-(3,5-dichlorophenyl)methanesulfonamide] | < 1000 | – |
| O=S(=O)(Nc1nnc(Cl)cc1O)c1cc(Cl)cc(Cl)c1 [Example 95, 3,5-dichloro-N-(6-chloro-4-hydroxypyridazin-3-yl)benzene-1-sulfonamide] | 700 | – |
| O=S(=O)(Nc1nnc(C(F)(F)F)cc1O)c1cc(F)cc(Cl)c1 [Example 163, 3-chloro-5-fluoro-N-[4-hydroxy-6-(trifluoromethyl)pyridazin-3-yl]benzene-1-sulfonamide] | > 1000 | – |
| N#Cc1cnc(NS(=O)(=O)Cc2cc(Cl)cc(Cl)c2)c(O)c1 [Example 189, N-(5-cyano-3-hydroxypyridin-2-yl)-1-(3,5-dichlorophenyl)methanesulfonamide] | 120 | – |
| O=S(=O)(Nc1ccnc(Cl)c1O)c1cc(Cl)cc(Cl)c1 [Example 170, 3,5-dichloro-N-(2-chloro-3-hydroxypyridin-4-yl)benzene-1-sulfonamide] | < 1000 | – |
| O=S(=O)(Nc1cncc(Cl)c1O)c1ccc(OC(F)(F)F)c(Cl)c1 [Example 102, 3-chloro-N-(5-chloro-4-hydroxypyridin-3-yl)-4-(trifluoromethoxy)benzene-1-sulfonamide] | 2200 | – |
| CS(=O)(=O)c1cnc(NS(=O)(=O)Cc2cc(Cl)cc(Cl)c2)c(O)c1 [Example 32, 1-(3,5-dichlorophenyl)-N-(3-hydroxy-5-methanesulfonylpyridin-2-yl)methane-sulfonamide] | 140 | – |
| COc1ncc(S(=O)(=O)Nc2cnccc2O)cc1Br [Example 62, 5-bromo-N-(4-hydroxypyridin-3-yl)-6-methoxypyridine-3-sulfonamide] | 4400 | – |
| O=S(=O)(Cc1cc(F)cc(Cl)c1)Nc1nnc(Cl)cc1O [Example 94, N-(6-chloro-4-hydroxypyridazin-3-yl)-1-(3-chloro-5-fluorophenyl)methane-sulfonamide] | 300 | – |
| O=S(=O)(Cc1ccc(C(F)(F)F)cc1)Nc1ccc(Cl)nc1O [Example 178, N-(6-chloro-2-hydroxypyridin-3-yl)-1-[4-(trifluoromethyl)phenyl]methane-sulfonamide] | > 1000 | – |
